Key:
HCA2 human fibroblasts = details: 2.5 μM, 48 hours
Experimental: The initial drug screen was performed in a 96-well format using automated liquid handling with a Biomek FX (Beckman Coulter, CA). Senescent cells were plated 24 hours after X-irradiation at 7,500 cells per well in 96-well plates. Six days after plating the senescent cells, the pre-senescent cells were plated at 7,500 cells per well in 96-well plates. Twenty-four hours after pre-senescent plating, both pre-senescent and senescent cells were washed and incubated in low (0.2%) serum for 48 hours to arrest cell proliferation of the pre-senescent cells. Drugs from the Prestwick Chemical Library, which contains 1120 bio-available compounds in DMSO, were given to the cells at 2.5 μM in media containing 0.2% serum. Forty-eight hours after compound addition, the medium in each well was removed and frozen for assay by ELISA to quantitate the levels of IL-6. The cells, which remained in the wells after the medium was removed, were lysed and ATP levels were measured (ATPlite 1-step assay, Perkin Elmer, MA) to exclude compounds that lowered IL-6 through toxicity (cell death). Experimental wells in each plate were normalized to plate mean or same-plate DMSO controls for the ELISA and ATP assays, respectively.
To identify small molecules that may be potential SASP modulators, a screening strategy that entailed administering compounds to parallel 96-well plates containing human fibroblasts (strain HCA2) that were either quiescent or senescent was developed. The compounds tested comprised the Prestwick Chemical Library, a collection of approximately 1,120 Federal Drug Administration-approved drugs. The compounds were added to duplicate wells at a single concentration (2.5 μM). After 48 hours, the medium from each well was removed, and the cells were lysed. […] Cell lysates were assayed for ATP as a surrogate for cell number.

IL-6 = IL-6 ELISA of conditioned media from X-irradiated senescent HCA2 fibroblasts; type: cell-based, human; details: for IL-6 secretion, varying concentrations: added immediately after irradiation, 6 days
Experimental: To validate glucocorticoids as SASP regulators, they were added within 15 min after irradiation (unless otherwise indicated). For cells induced to senesce by MKK6 or RAS overexpression, glucocorticoid treatment started 16 hours after infection. Glucocorticoids were re-added in fresh media every other day. Six days after irradiation or selection, cells were given serum-free DMEM with or without glucocorticoid for 24 hours; the conditioned media were collected and frozen for ELISAs.
Conditioned media were filtered and stored at −80° C. Cell numbers were determined in every experiment. ELISAs were performed using kits and procedures from PerkinElmer (IL-6 AL223F). Data were normalized and expressed as pg/ml/cell/24 h.
To confirm the ability of corticosterone to suppress senescence-associated IL-6 secretion, fresh HCA2 fibroblast cultures were prepared, and senescence was induced by X-irradiation (10 Gy). Under these conditions, cells undergo growth arrest within 24-48 hours, but require 4-5 days before SASP components are detected in the medium (Coppe et al., 2008, PLoS Biol. 6:2853-2868; Rodier et al., 2009, Nature Cell Biol. 11:973-979; Coppe et al., 2010, PLoS ONE 5:e9188; Freund et al., 2011, EMBO J. 30:1536-1548). Varying concentrations of corticosterone were added immediately after irradiation, and the cells were maintained in the drug for 6 days. On the 6th day, the cells were incubated in serum-free medium with or without corticosterone, the conditioned medium was collected 24 h later, and the medium was assayed for IL-6 by ELISA. […] The ability of corticosterone to suppress IL-6 secretion by senescent cells was not peculiar to HCA2 cells.

SASP = test: Antibody arrays of conditioned media (120 cytokines and growth factors, SASP); type: cell-based, human; details: 500 nM corticosterone or 100 nM cortisol
Experimental: Cultures were washed and incubated in serum-free DMEM for 24 hours and the conditioned media were diluted to equivalent cell numbers using DMEM. Antibody arrays from Raybiotech (AAH-CYT-G1000-8) were used according to the manufacturer's instructions. Arrays were scanned using a GenePix 4200A Professional microarray scanner. Signal intensities were quantitated using LI-COR Odyssey software and normalized to positive controls for each sample, which were then normalized across all samples, as previously described (Freund et al., 2011, EMBO J. 30:1536-1548).
To determine whether or not, or to what extent corticosterone or cortisol suppressed the entire SASP, antibody arrays were used to interrogate the relative secretion of 120 cytokines and growth factors. Presenescent and senescent cells were incubated with 500 nM corticosterone or 100 nM cortisol (FIG. 12C).

Sen (XRA) HCA2 cells = test: Senescent phenotypes of Sen (XRA) HCA2 cells (SA-Bgal, BrdU labeling, 53BP1 foci); type: cell-based, human; details: 500 nM corticosterone or 100 nM cortisol, 7 days
Experimental: Conditioned media from presenescent (Pre) and the control and glucocorticoid-treated Sen (XRA) cells were analyzed by ELISA for IL-6. […] The percentage of presenescent (Pre) and Sen (XRA) cells that express SA-Bgal were scored (upper panel). A representative field corresponding to each condition is also shown (bottom panels). […] The percentage of cells with >2 53BP1 nuclear foci was determined using CELL PROFILER software. At least 200 cells were analyzed per condition.
HCA2 human neonatal foreskin, IMR-90 human fetal lung fibroblasts and T47D human breast cancer cells were obtained and cultured in 3% O2 and 10% CO2 as previously described (Coppe et al., 2008, PLoS Biol. 6:2853-2868; Rodier et al., 2009, Nature Cell Biol. 11:973-979; Coppe et al., 2010, PLoS ONE 5:e9188). Cells were induced to senesce by X-irradiation (10 Gy) or lentiviral expression of oncogenic RAS or MAP kinase kinase 6 (MKK6), as described (Coppe et al., 2008, PLoS Biol. 6:2853-2868; Rodier et al., 2009, Nature Cell Biol. 11:973-979; Freund et al., 2011, EMBO J. 30:1536-1548). Pre-senescent and senescent cells had 24-h BrdU labeling indices of >75% and <10% respectively (Rodier et al., 2009, Nature Cell Biol. 11:973-979); <10% and >70% respectively stained positive for senescence-associated beta-galactosidase activity (Dimri et al., 1995, Proc. Natl. Acad. Sci. USA 92:9363-9367) (Biovision senescence detection kit). HEK293FT packaging cells (Invitrogen) were used to generate lentiviruses. Corticosterone, cortisol and RU-486 were obtained from Sigma-Aldrich.

SASP factor mRNA = test: Real-time quantitative PCR of transcripts in HCA2 cells (normalized to tubulin); type: cell-based, human; details: 500 nM corticosterone or 100 nM cortisol; for IL-6, IL-8, MMP-3 mRNA levels: senescent X-irradiated HCA2 cells
Source text: Cells (7,500/well) in 96-well plates were lysed and reverse transcribed using the Cells-To-Ct kit (Ambion).

| SMILES | ATP levels (HCA2 human fibroblasts) | reduction of senescence-associated IL-6 secretion (IL-6; 100 nM cortisol) [%] | IC50 (IL-6; Homo sapiens, HCA2, sub-nM concentrations, read-out: concentration reducing senescence-associated IL-6 secretion by 50%) [nM] | IL-6 secretion, varying concentrations (IL-6) | secretion of growth and angiogenic factors (SASP) | secretion of pro-inflammatory cytokines and chemokines (SASP) | suppression of all components of the SASP (SASP) | fraction of cells that expressed SA-Bgal (Sen (XRA) HCA2 cells) | number of persistent DNA damage foci (53BP1) (Sen (XRA) HCA2 cells) | senescence growth arrest (24 h BrdU labeling index) (Sen (XRA) HCA2 cells) | GR mRNA levels (SASP factor mRNA) | IκBα mRNA levels (SASP factor mRNA) | IL-6, IL-8, MMP-3 mRNA levels (SASP factor mRNA) | reduction of IL-6 secretion (IL-6; 20 nM corticosterone) | maximal suppression of IL-6 secretion (IL-6; 500 nM corticosterone) [%] | IL-6 secretion, continuous exposure (IL-6; 500 nM, continuous exposure for 7 days after irradiation) | IL-6 secretion, short exposure (IL-6; 500 nM, pretreatment before X-irradiation, or only 24 hours immediately after irradiation or after establishment of the SASP (7 days)) |
| --- | --- | --- | --- | --- | --- | --- | --- | --- | --- | --- | --- | --- | --- | --- | --- | --- | --- |
| C[C@]12CCC(=O)C=C1CC[C@@H]1[C@@H]2[C@@H](O)C[C@@]2(C)[C@H]1CC[C@]2(O)C(=O)CO [cortisol] | without altering ATP levels | > 90 | 0.16 to 0.8 | decreased IL-6 secretion in a dose-dependent manner, and was more potent than corticosterone | suppressed the secretion of several growth and angiogenic factors such as VEGF | strongly suppressed the secretion of several pro-inflammatory cytokines and chemokines, including IL-6, IL-8, GM-CSF and MCP-2 | Neither glucocorticoid suppressed all components of the SASP | no effect on the fraction of cells that expressed SA-Bgal | no effect on the number of persistent DNA damage foci | maintained their low 24 h BrdU labeling index | unaffected by glucocorticoid addition | no effect on IκBα mRNA levels | strongly reduced |  |  |  |  |
| C[C@]12C[C@H](O)[C@H]3[C@@H](CCC4=CC(=O)CC[C@@]43C)[C@@H]1CC[C@@H]2C(=O)CO [corticosterone] | without altering ATP levels |  |  | decreased IL-6 secretion in a dose-dependent manner | suppressed the secretion of several growth and angiogenic factors such as VEGF | strongly suppressed the secretion of several pro-inflammatory cytokines and chemokines, including IL-6, IL-8, GM-CSF and MCP-2 | Neither glucocorticoid suppressed all components of the SASP | no effect on the fraction of cells that expressed SA-Bgal | no effect on the number of persistent DNA damage foci | maintained their low 24 h BrdU labeling index | unaffected by glucocorticoid addition | no effect on IκBα mRNA levels | strongly reduced | approximately 50% | > 90 | strongly suppressed IL-6 secretion | had no effect on IL-6 secretion |

Source: patent US9884065B2, “Inhibiting activity of senescent cells using a glucocorticoid” (Buck Institute for Research on Aging, priority 2011, dated 2018)
